In the first experiment the test system is MCH receptors. The experiment is described as follows: MCH receptor activity class (method not given). The following applies: MCH receptor activity class 1-3 (percent of control at 10^-7 M or IC50).
As to `Cc1c(Cl)cccc1NC(=O)NC[C@H]1CC[C@@H](Nc2nccc(N(C)C)n2)CC1` [compound 2431, N-(3-chloro-2-methylphenyl)-N′-[(cis-4-{[4-(dimethylamino)pyrimidin-2-yl]amino}cyclohexyl)methyl]urea], the class was 1 (Class 1: The value of percent of control at 10^−7 M was less than 40% or the value of IC50 was less than 50 nM.).

Staying with this experiment, now noted: MCH receptor; class by percent of control at 10^-7 M or IC50.
Take `CN(C)c1cc(N[C@H]2CC[C@@H](NC(=O)c3cc(C(C)(C)C)nn3C)CC2)nc2ccccc12` [compound 86]: the class is on record as 3 (Class 3 The value of percent of control at 10^−7 M was more than 60% or the value of IC50 was more than 200 nM.).

For the compound `CN(C)c1cc(N[C@H]2CC[C@@H](NC(=O)c3ccccc3SC(F)F)CC2)nc2ccccc12` [compound 82], the class is given as 3 (Class 3 The value of percent of control at 10^−7 M was more than 60% or the value of IC50 was more than 200 nM.).

Take `Cc1ccc(NC(=S)N[C@H]2CC[C@@H](Nc3nc4c(c(N(C)C)n3)CCCC4)CC2)c([N+](=O)[O-])c1` [compound 2020]: the class is listed as 3 (Class 3 The value of percent of control at 10^−7 M was more than 60% or the value of IC50 was more than 200 nM.).

As to `CN(C)c1cc(N[C@H]2CC[C@@H](CNC(=O)c3cc(Cl)sc3Cl)CC2)nc2ccccc12` [compound 210], the class was 3 (Class 3 The value of percent of control at 10^−7 M was more than 60% or the value of IC50 was more than 200 nM.).

Take `CN(C)c1cc(N[C@H]2CC[C@@H](NC(=O)c3ccc4c(c3)OCO4)CC2)nc2ccccc12` [compound 47]: the class is on record as 3 (Class 3 The value of percent of control at 10^−7 M was more than 60% or the value of IC50 was more than 200 nM.).

Staying with this experiment, now noted: activity class 1-3: percent of control at 10^-7 M or IC50.
As for `CN(C)c1nc(N[C@H]2CC[C@@H](NC(=O)Nc3ccccc3Cl)CC2)nc2c1CCCC2` [compound 1659], the class was 3 (Class 3 The value of percent of control at 10^−7 M was more than 60% or the value of IC50 was more than 200 nM.).

As to `COC(=O)N[C@H]1CC[C@@H](Nc2nc3c(c(N(C)C)n2)CCCC3)CC1` [compound 1595], the class is given as 3 (Class 3 The value of percent of control at 10^−7 M was more than 60% or the value of IC50 was more than 200 nM.).

Turning to `CN(C)c1nc(N[C@H]2CC[C@@H](NC(=O)Nc3c(Cl)c(Cl)cc(Cl)c3Cl)CC2)nc2c1CCCC2` [compound 1708], the class was 3 (Class 3 The value of percent of control at 10^−7 M was more than 60% or the value of IC50 was more than 200 nM.).

Still in this experiment, the particulars now being: activity class per percent of control at 10^-7 M or IC50.
Turning to `CCOC(=O)c1[nH]c2cc(Cl)cc(Cl)c2c1CN[C@H]1CC[C@@H](Nc2cc(N(C)C)c3ccccc3n2)CC1` [compound 1115], the class is recorded as 1 (Class 1: The value of percent of control at 10^−7 M was less than 40% or the value of IC50 was less than 50 nM.).

`CN(C)c1nc(N[C@H]2CC[C@@H](NC(=O)c3ccccc3Sc3ccccc3C#N)CC2)nc2c1CCCC2` [compound 1011]: the class is on record as 3 (Class 3 The value of percent of control at 10^−7 M was more than 60% or the value of IC50 was more than 200 nM.).

In the case of `CN(C)c1nc(N[C@H]2CC[C@@H](NC(=O)C3CCc4ccccc4C3)CC2)nc2c1CCCC2` (relative stereo) [compound 1053], the class is listed as 3 (Class 3 The value of percent of control at 10^−7 M was more than 60% or the value of IC50 was more than 200 nM.).

Staying with this experiment, now noted: class 1-3 by percent of control at 10^-7 M or IC50.
For `CN(C)c1ccnc(N[C@H]2CC[C@@H](CNC(=O)c3c(Cl)cc(Cl)cc3Cl)CC2)n1` [compound 451], the class was 2 (Class 2: The value of percent of control at 10^−7 M was from 40% to 60% or the value of IC′50 was from 50 nM to 200 nM.).

Staying with this experiment, now noted: class by percent of control at 10^-7 M or IC50.
With `CN(C)c1ccnc(N[C@H]2CC[C@@H](NC(=O)Nc3c(Cl)c(Cl)cc(Cl)c3Cl)CC2)n1` [compound 2228], the class was 3 (Class 3 The value of percent of control at 10^−7 M was more than 60% or the value of IC50 was more than 200 nM.).

Take `Cc1cc(Br)cc(C)c1NC(=S)N[C@H]1CC[C@@H](Nc2cc(N(C)C)c3ccccc3n2)CC1` [compound 2283, N-(4-bromo-2,6-dimethylphenyl)-N′-(cis-4-{[4-(dimethylamino)quinolin-2-yl]amino}cyclohexyl)thiourea]: the class is reported as 1 (Class 1: The value of percent of control at 10^−7 M was less than 40% or the value of IC50 was less than 50 nM.).

`COc1ccc(NC(=S)N[C@H]2CC[C@@H](Nc3nccc(N(C)C)n3)CC2)c(OC)c1` [compound 2260]: the class is on record as 2 (Class 2: The value of percent of control at 10^−7 M was from 40% to 60% or the value of IC′50 was from 50 nM to 200 nM.).

On to `CN(C)c1nc(N[C@H]2CC[C@@H](NC(=O)NC(=O)c3ccccc3)CC2)nc2c1CCCC2` [compound 1809], for which the class is recorded as 3 (Class 3 The value of percent of control at 10^−7 M was more than 60% or the value of IC50 was more than 200 nM.).

Regarding `CN(C)c1ccnc(N[C@H]2CC[C@@H](NC(=S)Nc3ccc(N(C)C)c4ccccc34)CC2)n1` [compound 2267], the class is reported as 2 (Class 2: The value of percent of control at 10^−7 M was from 40% to 60% or the value of IC′50 was from 50 nM to 200 nM.).

For `CN(C)c1ccnc(N[C@H]2CC[C@@H](CNC(=O)/C=C/c3ccccc3)CC2)n1` [compound 371], the class is 2 (Class 2: The value of percent of control at 10^−7 M was from 40% to 60% or the value of IC′50 was from 50 nM to 200 nM.).

For the compound `COc1ccc(CNC(=O)N[C@H]2CC[C@@H](Nc3nc4c(c(N(C)C)n3)CCCC4)CC2)cc1` [compound 1835], the class was 3 (Class 3 The value of percent of control at 10^−7 M was more than 60% or the value of IC50 was more than 200 nM.).

Regarding `CN(C)c1ccnc(N[C@H]2CC[C@@H](CNC(=O)c3ccc([N+](=O)[O-])s3)CC2)n1` [compound 939], the class is given as 3 (Class 3 The value of percent of control at 10^−7 M was more than 60% or the value of IC50 was more than 200 nM.).

With `COc1ccc2[nH]cc(CN[C@H]3CC[C@@H](Nc4nc5c(c(N(C)C)n4)CCCC5)CC3)c2c1` [compound 1331], the class is listed as 1 (Class 1: The value of percent of control at 10^−7 M was less than 40% or the value of IC50 was less than 50 nM.).

Turning to `CN(C)c1nc(N[C@H]2CC[C@@H](CNC(=O)Cc3ccc(F)cc3)CC2)nc2c1CCCC2` [compound 630], the class was 3 (Class 3 The value of percent of control at 10^−7 M was more than 60% or the value of IC50 was more than 200 nM.).

`COc1ccc(NC(=S)N[C@H]2CC[C@@H](Nc3nc4c(c(N(C)C)n3)CCCC4)CC2)c(C)c1` [compound 1776]: the class was 2 (Class 2: The value of percent of control at 10^−7 M was from 40% to 60% or the value of IC′50 was from 50 nM to 200 nM.).

In the case of `CN(C)c1ccnc(N[C@H]2CC[C@@H](CNCc3c[nH]c4ccc(Br)cc34)CC2)n1` [compound 1251], the class was 1 (Class 1: The value of percent of control at 10^−7 M was less than 40% or the value of IC50 was less than 50 nM.).

Turning to `CN(C)c1nc(N[C@H]2CC[C@@H](NC(=O)Cc3ccccc3I)CC2)nc2c1CCCC2` [compound 957], the class was 2 (Class 2: The value of percent of control at 10^−7 M was from 40% to 60% or the value of IC′50 was from 50 nM to 200 nM.).

Take `CN(C)c1nc(N[C@H]2CC[C@@H](CNC(=O)Nc3cccc(Cl)c3Cl)CC2)nc2c1CCCC2` [compound 2486]: the class was 3 (Class 3 The value of percent of control at 10^−7 M was more than 60% or the value of IC50 was more than 200 nM.).

As to `CN(C)c1nc(N[C@H]2CC[C@@H](CNC(=O)c3ccc(I)cc3)CC2)nc2c1CCCC2` [compound 603], the class is 3 (Class 3 The value of percent of control at 10^−7 M was more than 60% or the value of IC50 was more than 200 nM.).

Consider `COc1c(Br)cc(Br)cc1CNC[C@H]1CC[C@@H](Nc2nccc(N(C)C)n2)CC1` [compound 1292], for which the class is reported as 1 (Class 1: The value of percent of control at 10^−7 M was less than 40% or the value of IC50 was less than 50 nM.).

Turning to `Cc1ccc(C(=O)NC[C@H]2CC[C@@H](Nc3nccc(N(C)C)n3)CC2)cc1` [compound 396], the class is reported as 3 (Class 3 The value of percent of control at 10^−7 M was more than 60% or the value of IC50 was more than 200 nM.).

As to `CN(C)c1nc(N[C@H]2CC[C@@H](NC(=O)Nc3ccc(Br)cc3Cl)CC2)nc2c1CCCC2` [compound 1883, N-(4-bromo-2-chlorophenyl)-N′-(cis-4-{[4-(dimethylamino)-5,6,7,8-tetrahydroquinazolin-2-yl]amino}cyclohexyl)urea], the class is listed as 2 (Class 2: The value of percent of control at 10^−7 M was from 40% to 60% or the value of IC′50 was from 50 nM to 200 nM.).

The experiment is the same for the next values; noted with them: class by percent of control at 10^−7 M or IC50.
Take `Cc1ccc(C(=O)N[C@H]2CC[C@@H](Nc3nc(C)c(C)c(N(C)C)n3)CC2)cc1F` [compound 2853, N-(cis-4-{[4-(dimethylamino)-5,6-dimethylpyrimidin-2-yl]amino}cyclohexyl)-3-fluoro-4-methylbenzamide]: the class was 1 (Class 1: The value of percent of control at 10^−7 M was less than 40% or the value of IC50 was less than 50 nM.).

With `Cc1cnc(N[C@H]2CC[C@@H](NCc3ccc(F)c(F)c3)CC2)nc1N(C)C` [compound 2997], the class was 3 (Class 3 The value of percent of control at 10^−7 M was more than 60% or the value of IC50 was more than 200 nM.).

With `Cc1ccc(CNC(=O)[C@H]2CC[C@@H](Nc3nc(C)cc(N(C)C)n3)CC2)cc1` [compound 2809, cis-4-{[4-(dimethylamino)-6-methylpyrimidin-2-yl]amino}-N-(4-methylbenzyl)cyclohexanecarboxamide], the class is on record as 1 (Class 1: The value of percent of control at 10^−7 M was less than 40% or the value of IC50 was less than 50 nM.).

For the compound `Cc1cnc(N[C@H]2CC[C@@H](C(=O)Nc3ccc(C(F)(F)F)cc3)CC2)nc1N(C)C` [compound 2791, cis-4-{[4-(dimethylamino)-5-methylpyrimidin-2-yl]amino}-N-[4-(trifluoromethyl)phenyl]cyclohexanecarboxamide], the class is 1 (Class 1: The value of percent of control at 10^−7 M was less than 40% or the value of IC50 was less than 50 nM.).

On to `Cc1cnc(N[C@H]2CC[C@@H](NC(=O)c3ccccc3Cl)CC2)nc1N(C)C` [compound 2915], for which the class is 3 (Class 3 The value of percent of control at 10^−7 M was more than 60% or the value of IC50 was more than 200 nM.).

For the origin of these results see patent US20050197350A1, “Novel quinoline, tetrahydroquinazoline, and pyrimidine derivatives and methods of treatment related to the use thereof” (TAISHO PHARMACEUTICAL CO., LTD., priority 2003, published 2005).
